This is an account of results in patent publication US8466176B2 (priority 2008, dated 2013).

SMILES strings stand for the structures.

One data set in a line: logP(HCOOH) reported with HPLC/MS. Conditions: HCOOH (formic acid), logP(HCOOH), HPLC/MS.
As a reminder, the chromatographic logP is a lipophilicity value derived from retention on a column. The molecule `O=C1c2ccccc2C(=O)N1Cc1cccc(CCl)n1` [2-{[6-(chloromethyl)pyridin-2-yl]methyl}-1H-isoindole-1,3(2H)-dione] displayed a chromatographic logP of 2.51. In the case of `OCc1nc(Br)ccc1F` [(6-bromo-3-fluoropyridin-2-yl)methanol], the chromatographic logP was determined as 0.92.

`OCc1cccc(C2OCCO2)n1` [[6-(1,3-dioxolan-2-yl)pyridin-2-yl]methanol] had a chromatographic logP of 0.54. Molecule `Cc1cccc(C2OCCO2)[n+]1[O-]` [2-(1,3-dioxolan-2-yl)-6-methylpyridine 1-oxide] gave a chromatographic logP of 0.45. On the same count and under the same terms, with `COc1ccc(CON=C(c2ccccc2)c2nnnn2C)nc1Br` [Example 125, N-[(6-bromo-5-methoxypyridin-2-yl)methoxy]-1-(1-methyl-1H-tetrazol-5-yl)-1-phenylmethanimine] the figure was 3.13; with `CSc1cccc(C(=NOCc2csc(N)n2)c2nnnn2C)c1` [4-{[({[3-(methylsulfanyl)phenyl](1-methyl-1H-tetrazol-5-yl)methylene}amino)oxy]methyl}-1,3-thiazol-2-amine], 1.76.

The data set is the same for the next values; noted with them: HPLC, logP(HCOOH), HPLC/MS.
On to `Cc1nnnn1C(=NOCc1csc(Br)n1)c1ccccc1` [Example 145, N-[(2-bromo-1,3-thiazol-4-yl)methoxy]-1-(5-methyl-1H-tetrazol-1-yl)-1-phenylmethanimine], for which the chromatographic logP turned out to be 3.15. On to `Cc1sc(Br)nc1CON=C(c1ccccc1)c1nnnn1C` [Example 175, N-[(2-bromo-5-methyl-1,3-thiazol-4-yl)methoxy]-1-(1-methyl-1H-tetrazol-5-yl)-1-phenylmethanimine], for which the chromatographic logP turned out to be 3.37.

`Cc1sc(Br)nc1CBr` [2-bromo-4-(bromomethyl)-5-methyl-1,3-thiazole]: the chromatographic logP came out at 2.64.

The same data set, now with this note: logP(HCOOH), HPLC/MS.
Turning to `CC(C)(C)OC(=O)Nc1cccc(C=O)n1` [tert-butyl (6-formylpyridin-2-yl)carbamate], the chromatographic logP was 2.44.

The data set is the same for the next values; noted with them: method [a]: HPLC on reversed phase columns, pH 2.3 with 0.1% phosphoric acid and acetonitrile as eluent.
For `Cn1nnnc1C(=NOCc1cccc(NCC2CC2(F)F)n1)c1ccccc1` (centres unmarked) [Example 179], the log p was 2.17^[a].

The data set is the same for the next values; noted with them: method [b]: LC-MS at pH 2.7, 0.1% formic acid in water and acetonitrile, linear gradient 10% to 95% acetonitrile.
As for `CCCCCNC(=O)c1cccc(CON=C(c2ccccc2)n2nnnc2C)n1` [Example 16], the log p was 3.52^[b]. Still for that read-out and setting: in the case of `Cn1nnnc1C(=NOCc1cccc(CNC(=O)Cc2ccccc2)n1)c1ccccc1` [Example 54] it was 2.7^[b]; in that of `Cn1nnnc1C(=NOCc1cccc(CNC(=O)CCc2ccccc2)n1)c1ccccc1` [Example 58], 2.82^[b]; in that of `COc1ccc(CON=C(c2ccccc2)c2nnnn2C)nc1C#CCOc1ccccc1` [Example 131], 3.8^[b]. In the case of `Cn1nnnc1C(=NOCc1cccc(C#CCc2cccc(F)c2)n1)c1ccccc1` [Example 112], the log p was 4.16^[b]. With `COc1ccc(CON=C(c2ccccc2)c2nnnn2C)nc1C#CCC1CCCCC1` [Example 129], the log p was 4.84^[b]. Regarding `Cn1nnnc1C(=NOCc1nc(C#CCCCc2ccccc2)ccc1F)c1ccccc1` [Example 104], the log p is 4.84^[b]. On to `Cn1nnnc1C(=NOCc1nc(C#CCOc2ccccc2)sc1Cl)c1ccccc1` [Example 119], for which the log p was 4.62^[b].

Consider `CC(C)CC(=O)NCc1cccc(CON=C(c2ccccc2)c2nnnn2C)n1` [Example 56], for which the log p was 2.51^[b]. Still for that read-out and setting: in the case of `Cc1nnnn1C(=NOCc1cccc(NC(=S)NC(C)C)n1)c1ccccc1` [Example 12] it was 3.22^[b]. Regarding `Cn1nnnc1C(=NOCc1nc(C#CCCCC#N)ccc1F)c1ccccc1` [Example 103], the log p was 3.11^[b]. In the case of `Cn1nnnc1C(=NOCc1cccc(C#CCn2ccc(C(F)(F)F)n2)n1)c1ccccc1` [Example 110], the log p is 3.62^[b]. For `CC(C)c1nc(CON=C(c2ccccc2)c2nnnn2C)cs1` [Example 78], the log p was 3.39^[b]. Still for that read-out and setting: in the case of `Cn1nnnc1C(=NOCc1nc(C#CCCC2CCCCC2)ccc1F)c1ccccc1` [Example 107] it was 5.68^[b]; in that of `CC(=O)N(CCC1CCCCC1)c1cccc(CON=C(c2ccccc2)c2nnnn2C)n1` [Example 76], 4.16^[b]; in that of `Cc1cccc(CON=C(c2ccccc2)c2nnnn2C)n1` [Example 42], 1.67^[b]. On to `CCN(C)C=Nc1cccc(CON=C(c2ccccc2)n2nnnc2C)n1` [Example 3], for which the log p is 1.43^[b].

Staying with this data set, now noted: method [b]: LC-MS, pH 2.7 with 0.1% formic acid in water and acetonitrile (0.1% formic acid), linear gradient 10% to 95% acetonitrile.
For the molecule `CCSCC#Cc1nc(CON=C(c2ccccc2)c2nnnn2C)cs1` [Example 199], the log p was 3.78^[b]. `Cn1nnnc1C(=NOCc1csc(C#CCC2CCCC2)n1)c1cccc(F)c1` [Example 153]: the log p is 5.03^[b].

For `Cn1nnnc1C(=NOCc1csc(C#CCCCCl)n1)c1ccccc1` [Example 193], the log p was 3.8^[b].

For the molecule `COC(C)(C)C#Cc1cccc(CON=C(c2ccccc2)c2nnnn2C)n1` [Example 240], the log p is 3.42^[b]. On the same count and under the same terms, with `Cn1nnnc1C(=NOCc1cccc(C#CCCCC#N)n1)c1ccccc1` [Example 239] the figure was 2.9^[b]. On to `Cn1nnnc1C(=NOCc1csc(C#CCCCC#N)n1)c1cccc(F)c1` [Example 154], for which the log p is 3.09^[b]. Take `Cn1nnnc1C(=NOCc1cccc(C#Cc2ccccc2C(F)(F)F)n1)c1ccccc1` [Example 219]: the log p is 4.44^[b]. Regarding `CCCCCC#Cc1cccc(CON=C(c2ccccc2)c2nnnn2C)n1` [Example 214], the log p was 4.67^[b]. Take `Cn1nnnc1C(=NOCc1cccc(C#Cc2ccc3ccccc3c2)n1)c1ccccc1` [Example 208]: the log p was 4.78^[b]. `Cn1nnnc1C(=NOCc1cccc(C#Cc2ccc(Cl)cc2)n1)c1ccccc1` [Example 250]: the log p is 4.54^[b].

As for `C#Cc1nc(CON=C(c2cccc(F)c2)c2nnnn2C)cs1` [Example 157], the log p was 2.88^[b]. For the molecule `COc1ccc(CON=C(c2ccccc2)c2nnnn2C)nc1C#CC(C)(C)C` [Example 133], the log p is 3.92^[b]. `CCCCCCC#Cc1cccc(CON=C(c2ccccc2)c2nnnn2C)n1` [Example 235]: the log p is 5.11^[b]. On the same count and under the same terms, with `COc1ccc(CON=C(c2ccccc2)c2nnnn2C)nc1C#CC1CCCCC1` [Example 132] the figure was 4.44^[b]. Still for that read-out and setting: in the case of `Cn1nnnc1C(=NOCc1cccc(C#Cc2ccsc2)n1)c1ccccc1` [Example 207] it was 3.83^[b]; in that of `Cn1nnnc1C(=NOCc1cccc(C#CCC2CCCCC2)n1)c1ccccc1` [Example 213], 5.17^[b].

As to `Cn1nnnc1C(=NOCc1cccc(C#CCCc2ccccc2)n1)c1ccccc1` [Example 210], the log p is 4.29^[b]. Consider `Cn1nnnc1C(=NOCc1csc(C#CC2CC2)n1)c1cccc(F)c1` [Example 148], for which the log p was 3.71^[b].

With `Cn1nnnc1C(=NOCc1cccc(C#Cc2cccc(C#N)c2)n1)c1ccccc1` [Example 225], the log p is 3.69^[b]. For `Cn1nnnc1C(=NOCc1csc(C#Cc2cccc(C#N)c2)n1)c1ccccc1` [Example 259], the log p was 3.76^[b]. Still for that read-out and setting: in the case of `CCCC#Cc1nc(CON=C(c2ccccc2)c2nnnn2C)c(C)s1` [Example 182] it was 4.24^[b].

The data set is the same for the next values; noted with them: reversed phase HPLC column, pH 2.7, log p, method [b]: LC-MS at pH 2.7, 0.1% formic acid in water and acetonitrile, linear gradient 10% to 95% acetonitrile.
`COc1ccc(CON=C(c2ccccc2)c2nnnn2C)nc1Br` [Example 125, N-[(6-bromo-5-methoxypyridin-2-yl)methoxy]-1-(1-methyl-1H-tetrazol-5-yl)-1-phenylmethanimine] gave a chromatographic logP of 3.13.

The data set is the same for the next values; noted with them: reversed phase HPLC column, pH 2.7, log p, method [b]: LC-MS, pH 2.7 with 0.1% formic acid in water and acetonitrile (0.1% formic acid), linear gradient 10% to 95% acetonitrile.
Take `Cc1nnnn1C(=NOCc1csc(Br)n1)c1ccccc1` [Example 145, N-[(2-bromo-1,3-thiazol-4-yl)methoxy]-1-(5-methyl-1H-tetrazol-1-yl)-1-phenylmethanimine]: the chromatographic logP worked out at 3.15. Same read-out and setting: in the case of `Cc1sc(Br)nc1CON=C(c1ccccc1)c1nnnn1C` [Example 175, N-[(2-bromo-5-methyl-1,3-thiazol-4-yl)methoxy]-1-(1-methyl-1H-tetrazol-5-yl)-1-phenylmethanimine] it was 3.37; in that of `Cc1sc(C#CC2CC2)nc1CON=C(c1ccccc1)c1nnnn1C` [Example 181], 3.83.
